This is an account of results in patent US20160038435A1 (Teva Pharmaceutical Industries Ltd., priority 2013, published 2016).

The structures appear in SMILES notation. Converted amounts (≈) assume the structure as drawn. Structures can show the parent of a compound that is named as a salt.

Series [1] is described as follows: Concentration of saturated donor solutions applied onto the skin. The format is physicochemical.
Series [2] can be described thus: Saturation solubilities in solvents. The format is physicochemical. Here is the method:
Saturation solubilities were measured in solvents typically used for incorporating of the drug into the pressure sensitive adhesives (PSA). Additional solubilities were measured in water, Phosphate buffered saline (PBS) Buffer (acceptor medium for skin permeation) and three different donor medium. All solubilities were measured at room temperature.

For series [3], the system named is genes related to antigen presentation. To be noted: mainly via the NFkB pathway; cited from earlier work.

As for `CCN(C(=O)c1c(O)c2c(Cl)cccc2n(C)c1=O)c1ccccc1` [Laquinimod Sodium Salt, Laquinimod sodium], the “c of saturated solution” value came out at 1.17 mg/mL in series [1] (EtOH/Dodecanol 95/5, saturated solution containing solid API, listed as Laquinimod-Na); 4.30 mg/mL in series [1] (EtOH/Oleic acid 85/15, saturated solution containing solid API, listed as Laquinimod-Na); 10.00 mg/mL in series [1] (Propylene glycol (PG)/water 8/2, saturated solution containing solid API, listed as Laquinimod-Na).

`CCN(C(=O)c1c(O)c2c(Cl)cccc2n(C)c1=O)c1ccccc1` [Laquinimod free acid]: the “c of saturated solution” value was found to be 3.49 mg/mL in series [1] (EtOH/Dodecanol 95/5, saturated solution containing solid API); 3.93 mg/mL in series [1] (EtOH/Oleic acid 85/15, saturated solution containing solid API); 1.22 mg/mL in series [1] (Propylene glycol (PG)/water 8/2, saturated solution containing solid API). Further, the Solubility in series [2] (2-Propanol, room temperature) stood at 1662 µg/mL (≈ 4.66 mM); in series [2] (Acetone, room temperature) it was 4884 µg/mL (≈ 13.7 mM); in series [2] (Ethanol, room temperature) it was 4098 µg/mL (≈ 11.5 mM); in series [2] (Ethanol/Dodecanol (95:5), room temperature) it was 4209 µg/mL (≈ 11.8 mM); in series [2] (Ethanol/Oleic acid (85:15), room temperature), 4785 µg/mL (≈ 13.4 mM); in series [2] (Ethylacetate, room temperature), 3909 µg/mL (≈ 11 mM). The Solubility in series [2] (PBS pH 7.4, room temperature) came to 1296 µg/mL (≈ 3.63 mM); in series [2] (Propylenglycol/water (80:20), room temperature), 1281 µg/mL (≈ 3.59 mM); in series [2] (Water, room temperature) it was 24 µg/mL (≈ 0.0673 mM); in series [2] (n-Heptane, room temperature) it was 0.6 µg/mL (≈ 0.00168 mM).

With `CCN(C(=O)c1c(O)c2c(Cl)cccc2n(C)c1=O)c1ccccc1` [laquinimod], in series [3], the “effect on genes related to antigen presentation and inflammatory pathways” value is “induced suppression of genes related to antigen presentation and corresponding inflammatory pathways”.

Usually Solubility stands for the concentration that dissolves in the medium under given conditions.
